From ChEMBL document CHEMBL1152864, “Synthesis and anti-inflammatory activity of newer quinazolin-4-one derivatives” (Eur J Med Chem, 2009)

Tests used:
[1] = tested on: Rattus norvegicus; assay: Antiinflammatory activity in Charles-Foster albino rat assessed as inhibition of carrageenan-induced hind paw edema at 50 mg/kg, po relative to control; assay type: functional
[2] = Acute toxicity in po dosed albino mouse; assay type: organism-based; conditions: in vivo, read-out: ALD50
[3] = tested on: Rattus norvegicus; assay: Antiinflammatory activity in Charles-Foster albino rat assessed as inhibition of carrageenan-induced hind paw edema at 25 mg/kg, po relative to control; assay type: functional
[4] = tested on: Rattus norvegicus; assay: Antiinflammatory activity in Charles-Foster albino rat assessed as inhibition of carrageenan-induced hind paw edema at 100 mg/kg, po relative to control; assay type: functional

Compound | inhibition in vivo at 50 mg/kg [1] | LD50 [2] | inhibition in vivo at 25 mg/kg [3] | inhibition in vivo at 100 mg/kg [4]
O=c1c2ccccc2nc(CSc2nnc(-c3ccncc3)o2)n1/N=C/c1ccccc1 | 16.3% | > 1000 mg/kg |  | 
O=C1C(Cl)C(c2ccccc2)N1n1c(CSc2nnc(-c3ccncc3)o2)nc2ccc(Br)cc2c1=O (stereo not drawn) | 26.3% | > 1000 mg/kg |  | 
COc1ccc(C2SCC(=O)N2n2c(CSc3nnc(-c4ccncc4)o3)nc3ccc(Br)cc3c2=O)cc1 (stereo not drawn) | 35.3% | > 1000 mg/kg |  | 
COc1ccc(/C=N/n2c(CSc3nnc(-c4ccncc4)o3)nc3ccc(Br)cc3c2=O)cc1 | 24.4% | > 1000 mg/kg |  | 
O=C1C(Cl)C(c2ccc(O)cc2)N1n1c(CSc2nnc(-c3ccncc3)o2)nc2ccccc2c1=O (stereo not drawn) | 25.7% | > 1000 mg/kg |  | 
O=C1CSC(c2ccc(Cl)cc2)N1n1c(CSc2nnc(-c3ccncc3)o2)nc2ccc(Br)cc2c1=O (stereo not drawn) | 25.2% | > 1000 mg/kg | 25.2% | 66.9%
O=C1C(Cl)C(c2ccccc2)N1n1c(CSc2nnc(-c3ccncc3)o2)nc2ccccc2c1=O (stereo not drawn) | 25.1% | > 1000 mg/kg |  | 
O=c1c2cc(Br)ccc2nc(CSc2nnc(-c3ccncc3)o2)n1/N=C/c1ccc(Cl)cc1 | 26.4% | > 1000 mg/kg |  | 
O=C1CSC(c2ccccc2)N1n1c(CSc2nnc(-c3ccncc3)o2)nc2ccc(Br)cc2c1=O (stereo not drawn) | 31.3% | > 1000 mg/kg |  | 
O=C1CSC(c2ccc(O)cc2)N1n1c(CSc2nnc(-c3ccncc3)o2)nc2ccc(Br)cc2c1=O (stereo not drawn) | 32.7% | > 1000 mg/kg |  | 
COc1ccc(C2C(Cl)C(=O)N2n2c(CSc3nnc(-c4ccncc4)o3)nc3ccccc3c2=O)cc1 (stereo not drawn) | 26.1% | > 1000 mg/kg |  | 
O=c1c2cc(Br)ccc2nc(CSc2nnc(-c3ccncc3)o2)n1/N=C/c1ccccc1 | 19.4% | > 1000 mg/kg |  | 
O=C1CSC(c2ccc(Cl)cc2)N1n1c(CSc2nnc(-c3ccncc3)o2)nc2ccccc2c1=O (stereo not drawn) | 34.1% | > 1000 mg/kg |  | 
CCCCC1C(=O)N(c2ccccc2)N(c2ccccc2)C1=O [PHENYLBUTAZONE] | 36.8% |  | 25.4% | 66.4%
O=c1c2cc(Br)ccc2nc(CSc2nnc(-c3ccncc3)o2)n1/N=C/c1ccc(O)cc1 | 22.3% | > 1000 mg/kg |  | 
COc1ccc(/C=N/n2c(CSc3nnc(-c4ccncc4)o3)nc3ccccc3c2=O)cc1 | 20% | > 1000 mg/kg |  | 
COc1ccc(C2SCC(=O)N2n2c(CSc3nnc(-c4ccncc4)o3)nc3ccccc3c2=O)cc1 (stereo not drawn) | 33.8% | > 1000 mg/kg |  | 
O=c1c2ccccc2nc(CSc2nnc(-c3ccncc3)o2)n1/N=C/c1ccc(Cl)cc1 | 23.7% | > 1000 mg/kg |  | 
O=C1CSC(c2ccccc2)N1n1c(CSc2nnc(-c3ccncc3)o2)nc2ccccc2c1=O (stereo not drawn) | 30.1% | > 1000 mg/kg |  | 
O=C1C(Cl)C(c2ccc(Cl)cc2)N1n1c(CSc2nnc(-c3ccncc3)o2)nc2ccc(Br)cc2c1=O (stereo not drawn) | 29.9% | > 1000 mg/kg |  | 
O=C1CSC(c2ccc(O)cc2)N1n1c(CSc2nnc(-c3ccncc3)o2)nc2ccccc2c1=O (stereo not drawn) | 31.7% | > 1000 mg/kg |  | 
O=C1C(Cl)C(c2ccc(O)cc2)N1n1c(CSc2nnc(-c3ccncc3)o2)nc2ccc(Br)cc2c1=O (stereo not drawn) | 27.4% | > 1000 mg/kg |  | 
COc1ccc(C2C(Cl)C(=O)N2n2c(CSc3nnc(-c4ccncc4)o3)nc3ccc(Br)cc3c2=O)cc1 (stereo not drawn) | 28.6% | > 1000 mg/kg |  | 
O=c1c2ccccc2nc(CSc2nnc(-c3ccncc3)o2)n1/N=C/c1ccc(O)cc1 | 18.2% | > 1000 mg/kg |  | 
O=C1C(Cl)C(c2ccc(Cl)cc2)N1n1c(CSc2nnc(-c3ccncc3)o2)nc2ccccc2c1=O (stereo not drawn) | 27.9% | > 1000 mg/kg |  | 
